From ChEMBL document CHEMBL1201862, “PubChem BioAssay data set” (2004)
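Protocol summary: plate cells (96-well), add compound at 5 concentrations, incubate 48 h, interpolate endpoints linearly. GI50 = concentration required for 50% inhibition of growth.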 Active and inactive are the calls of the source. Rule as the data show it: active = GI50 up to about 1.1 µM and inactive = higher.

What was measured:
Assay in all cases: NCI-60 cell line screen, 48 h
786-0 = tested on: 786-0
CAKI-1 = tested on: CAKI-1
CCRF-CEM = tested on: CCRF-CEM
EKVX = tested on: EKVX
HCT-116 = tested on: HCT-116
HL-60 = tested on: HL-60
HOP-92 = tested on: HOP-92
HT-29 = tested on: HT-29
IGROV-1 = tested on: IGROV-1
M14 = tested on: M14
Malme-3M = tested on: Malme-3M
OVCAR-4 = tested on: OVCAR-4
SK-MEL-5 = tested on: SK-MEL-5
SK-OV-3 = tested on: SK-OV-3
SNB-19 = tested on: SNB-19
SNB-75 = tested on: SNB-75
SR = tested on: SR
U-251 = tested on: U-251
UACC-62 = tested on: UACC-62
T47D = tested on: T47D

Measured: GI50

CC(Oc1ccc2c(-c3ccccc3)cc(=O)oc2c1)C(=O)O (stereo not drawn)
inactive: 786-0 > 100 µM | CAKI-1 > 100 µM | CCRF-CEM > 100 µM | EKVX > 100 µM | HCT-116 > 100 µM | HL-60 > 100 µM | HOP-92 > 100 µM | HT-29 > 100 µM | IGROV-1 > 100 µM | M14 > 100 µM | Malme-3M > 100 µM | OVCAR-4 > 100 µM | SK-MEL-5 > 100 µM | SK-OV-3 > 100 µM | SNB-19 > 100 µM | SNB-75 > 100 µM | SR > 100 µM | U-251 > 100 µM | UACC-62 > 100 µM

Cc1nc(N)sc1C(=O)/C=C\c1ccc2c(c1)OCO2
inactive: 786-0 > 100 µM | CAKI-1 > 100 µM | CCRF-CEM > 100 µM | EKVX > 100 µM | HCT-116 > 100 µM | HL-60 > 100 µM | HOP-92 > 100 µM | HT-29 > 100 µM | IGROV-1 > 100 µM | M14 > 100 µM | Malme-3M > 100 µM | OVCAR-4 > 100 µM | SK-MEL-5 > 100 µM | SK-OV-3 > 100 µM | SNB-19 > 100 µM | SNB-75 > 100 µM | SR > 100 µM | U-251 > 100 µM | UACC-62 > 100 µM

Cc1ccsc1/C=N/Nc1cc(C)c2ccccc2n1
inactive: 786-0 16.3 µM | CAKI-1 16.6 µM | CCRF-CEM 17.1 µM | EKVX 6.82 µM | HCT-116 12.1 µM | HL-60 12.2 µM | HOP-92 13.7 µM | HT-29 3.61 µM | IGROV-1 1.36 µM | M14 8.63 µM | OVCAR-4 14.6 µM | SK-MEL-5 2.17 µM | SK-OV-3 17.3 µM | SNB-19 16.6 µM | SNB-75 13.8 µM | T47D 17.8 µM | U-251 14 µM | UACC-62 12.5 µM

O=[N+]([O-])c1cc2c([N+](=O)[O-])cccc2o1
inactive: 786-0 2.17 µM | CAKI-1 2.22 µM | CCRF-CEM 2.48 µM | EKVX 2.56 µM | HCT-116 2.72 µM | HOP-92 17.4 µM | HT-29 4.09 µM | M14 10.2 µM | Malme-3M 13.6 µM | OVCAR-4 1.58 µM | SK-MEL-5 16.7 µM | SK-OV-3 16.8 µM | SNB-19 19.2 µM | T47D 6.7 µM | U-251 18.4 µM | UACC-62 13 µM

C[C@@H]1[C@H](O)CC2=C(CC[C@@H](O)C2(C)C)[C@@]1(CO)CCc1ccoc1
inactive: 786-0 > 50 µM | CAKI-1 > 50 µM | CCRF-CEM 29.4 µM | EKVX > 50 µM | HCT-116 > 50 µM | HL-60 15.8 µM | HOP-92 > 50 µM | HT-29 > 50 µM | IGROV-1 > 50 µM | M14 > 50 µM | Malme-3M > 50 µM | OVCAR-4 > 50 µM | SK-MEL-5 > 50 µM | SK-OV-3 > 50 µM | SNB-19 > 50 µM | SNB-75 31.8 µM | SR 25.1 µM | U-251 > 50 µM | UACC-62 > 50 µM

O=S1(=O)C(c2ccccc2)=C(O)c2ccccc21
inactive: 786-0 > 100 µM | CCRF-CEM > 100 µM | EKVX > 100 µM | HCT-116 > 100 µM | HL-60 > 100 µM | HOP-92 > 100 µM | HT-29 > 100 µM | IGROV-1 > 100 µM | M14 > 100 µM | Malme-3M > 100 µM | OVCAR-4 > 100 µM | SK-MEL-5 > 100 µM | SNB-19 > 100 µM | SNB-75 > 100 µM | T47D > 100 µM | U-251 > 100 µM | UACC-62 > 100 µM

CN(C)c1ccc(/C=N/N=C2\C(=O)Nc3c(Cl)cc(Cl)cc32)cc1
inactive: 786-0 45.9 µM | CAKI-1 55.8 µM | CCRF-CEM 27.8 µM | EKVX 3.41 µM | HCT-116 39 µM | HL-60 28.6 µM | HOP-92 92.5 µM | HT-29 26.1 µM | IGROV-1 24.2 µM | M14 45.9 µM | Malme-3M 25.2 µM | OVCAR-4 > 100 µM | SK-MEL-5 41.2 µM | SK-OV-3 > 100 µM | SNB-19 > 100 µM | SNB-75 22.8 µM | SR 6.46 µM | U-251 79.3 µM | UACC-62 42.2 µM

CC(C)(c1ccccc1)c1ccc(OC#N)cc1
inactive: 786-0 > 58.1 µM | CAKI-1 > 95.5 µM | CCRF-CEM 40.6 µM | EKVX > 100 µM | HCT-116 34.4 µM | HL-60 36.4 µM | HOP-92 37.3 µM | HT-29 > 70.3 µM | IGROV-1 > 100 µM | M14 > 100 µM | Malme-3M > 100 µM | OVCAR-4 71.4 µM | SK-MEL-5 48.8 µM | SK-OV-3 98.6 µM | SNB-19 > 78 µM | SNB-75 15.2 µM | SR 19.2 µM | U-251 47.2 µM | UACC-62 > 95.1 µM

CC(C)Cc1cc(CCC(=O)Nc2ccccc2[N+](=O)[O-])nc(NC#N)n1
inactive: 786-0 > 100 µM | CAKI-1 > 100 µM | CCRF-CEM > 100 µM | EKVX > 100 µM | HCT-116 > 100 µM | HL-60 > 100 µM | HOP-92 > 100 µM | HT-29 > 100 µM | IGROV-1 > 100 µM | M14 > 100 µM | Malme-3M > 100 µM | OVCAR-4 > 100 µM | SK-MEL-5 > 100 µM | SK-OV-3 > 100 µM | SNB-19 > 100 µM | SNB-75 > 100 µM | SR > 100 µM | U-251 > 100 µM | UACC-62 > 100 µM

COc1cc2c[n+](C)c3c4cc(OC)c(OC)cc4c(OCCCCCCCCOc4cc5c6cc(OC)c(OC)cc6c[n+](C)c5c5cc(OC)c(OC)cc45)cc3c2cc1OC
inactive: 786-0 30.6 µM | CAKI-1 > 100 µM | CCRF-CEM 24.8 µM | EKVX > 100 µM | HCT-116 > 100 µM | HL-60 2.23 µM | HOP-92 > 100 µM | HT-29 67.9 µM | IGROV-1 > 100 µM | M14 > 100 µM | Malme-3M > 100 µM | OVCAR-4 > 100 µM | SK-MEL-5 47.8 µM | SK-OV-3 > 100 µM | SNB-19 17.4 µM | SNB-75 58.6 µM | SR 4.28 µM | U-251 12.9 µM | UACC-62 > 100 µM

CN1C(=O)C(=O)c2cc3c(c4c2c1cc1ccccc14)OCO3 [CEPHARADIONE A]
inactive: 786-0 7.23 µM | CAKI-1 31.3 µM | CCRF-CEM 8.95 µM | EKVX 69.7 µM | HCT-116 15.6 µM | HL-60 38.5 µM | HOP-92 > 100 µM | HT-29 34.4 µM | IGROV-1 37.6 µM | M14 26.7 µM | Malme-3M 38.8 µM | OVCAR-4 58.6 µM | SK-MEL-5 28.4 µM | SK-OV-3 50.4 µM | SNB-19 47.4 µM | SNB-75 39.2 µM | SR 7.5 µM | U-251 43.4 µM | UACC-62 16.9 µM
